Assays:
[1] = molecular target: T1, full-length TDP-43 recombinant protein (Homo sapiens, UniProt Q13148); test: In vitro analysis of TDP-43 fiber formation (negative staining electron microscopy); assay type: biochemical
T1 construct: Three-micromolar full-length TDP-43 recombinant protein (GenWay); purchased GenWay

[2] = test system: GFP-TDP-43-IIPLD inclusion-expressing 293T cells; test: TDP-43-IIPLD misfolded aggregates in transfected 293T cells (microscopy); assay type: cell-based
Method: Cell Culture and Drug Treatment: 293T cells were used throughout the experimental studies. 293T cells were grown in Dulbecco's modified Eagle's medium (DMEM)/F12, which was supplemented with 10% fetal bovine serum, 1% penicillin/streptomycin and 1% L-glutamate. Primary cultures of rat hippocampal neurons were prepared from embryonic day 17 rat embryos as previously described by (Wang et al, TDP-43, the signature protein of FTLD-U, is a neuronal activity-responsive factor. J. Neurochem. 105, 79T-806 (2008)). All procedures for handling the rat were carried out in accordance with the guidelines approved by the Institutional Animal Care and Utilization Committee, Academia Sinica. Hippocampal cells were plated on poly-1-lysine-coated coverslides at low density (10,000 cells per cm2) and cultured in the neurobasal medium/B27 (Invitrogen). The 293T cells were transfected using the calcium phosphate protocol according to the manufacturer's instructions and as previously described by Wang et al. (Wang et al., ProcNatlAcadSci USA. 99, 13583-13588 (2002). All of the plasmid constructs were described in Wang et al., Nature Communication, 2012). 293T cells (1×10^5) were seeded in each well of a six-well plate and incubated overnight in a 37° C. incubator with 5% CO2. To determine the effects of off-pathway stabilizers on the reduction of pathological-like aggregates, the cells were treated with baicalein and EGCG for 12, 24, or 48 h with the indicated concentrations (25 or 50 μM).
GFP-TDP-43 pathological-like (GFP-TDP-43-IIPLD) inclusion-expressing 293T cells were treated with or without 50 μM baicalein for 12 h following microscopic analysis and Western blotting validation. […] (FIG. 2c).

TDP-43 polymers = molecular target: T2, TDP-43 polymers (Homo sapiens, UniProt Q13148); test: Western blotting of TDP-43 polymers in nuclear, cytosolic and urea fractions; assay type: cell-based
T2 construct: endogenous in cells; host or cells: 293T
T2 sequence (Q13148 whole entry): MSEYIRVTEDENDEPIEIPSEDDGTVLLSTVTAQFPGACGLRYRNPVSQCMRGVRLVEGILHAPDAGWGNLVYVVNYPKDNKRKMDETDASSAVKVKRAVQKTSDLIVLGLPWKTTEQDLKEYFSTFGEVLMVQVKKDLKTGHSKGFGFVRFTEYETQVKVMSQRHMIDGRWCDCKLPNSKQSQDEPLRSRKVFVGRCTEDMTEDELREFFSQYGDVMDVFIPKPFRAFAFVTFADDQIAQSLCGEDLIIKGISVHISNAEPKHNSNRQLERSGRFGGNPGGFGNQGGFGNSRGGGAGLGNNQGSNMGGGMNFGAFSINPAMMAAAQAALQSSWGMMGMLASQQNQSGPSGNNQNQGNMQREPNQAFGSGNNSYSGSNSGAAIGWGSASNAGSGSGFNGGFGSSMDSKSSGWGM
Method: Solubility Assay of TDP-43 and p53: Cells with or without transfection of TDP-43-FL or TDP-43-Q303P were lysed with RIPA buffer (50 mM Tris, 150 mM NaCl, 1 mM EDTA, 1% NP-40, pH 7.4), and the lysate was further fractionated by centrifugation at 16,000 g for 5 min at 4° C. The insoluble pellets were then dissolved in 8 M urea/50 mM Tris (pH 8.0). The proteins were identified by Western blotting using a polyclonal TDP-43 antibody or a monoclonal p53 antibody.
TDP-43 proteinopathies in FTLD/ALS with the VCP/97 mutation R155H have been characterized. The VCP/97 mutation R155H alters the functions of VCP/97, redistributes TDP-43 to the cytosol, and leads to form-insoluble aggregates of TDP-43.

[3] = test system: TDP-43 in cells expressing progeria proteins; test: Localization of TDP-43 in progeria-expressing cells (immunofluorescence); assay type: cell-based
Method: (§1) Immunohistochemistry: Fluorescence staining was performed as described previously (Wang et al., 2012). Cells were transfected with or without plasmids or siRNAs and grown for 24 to 48 hr. Cells were fixed with 3.7% paraformaldehyde in PBS at RT for 15 min and then permeabilized with 0.1% Triton X-100. The fixed cells were incubated with primary antibodies at RT for 2 hr followed by incubation with Cy2- or Cy3-labeled secondary antibodies (Molecular Probes). Slides were mounted using Vectashield DAPI H-1200 (Vector). Cellular fluorescence images were collected using an LSM710 META laser-scanning confocal microscope (Zeiss).
To further characterize whether TDP-43 proteins are present in the nuclear matrix, consisting of proteins such as lamina A/C, we double-stained TDP-43 (green) with lamina A/C (red) (FIG. 7). The TDP-43 fibrogranular framework was partially connected to lamina A/C (FIG. 7a, the arrow indicates the colocalization area). As defective lamin A can cause progeria and the a premature aging disorder HGPS, overexpression of progeria proteins is considered a cell model of aging and allowed us to explore the mechanistic link between TDP-43 and aging or a lamin A pathology. We thus overexpressed progeria proteins and examined TDP-43 localization, the efficiency of TDP-43PLD-mediated exon 9 skipping and TDP-43 polymers. […]

[4] = test system: progeria-expressing cells; test: Nuclear shape in progeria-expressing cells (anti-lamin A/C immunostaining); assay type: cell-based; details: progeria-expressing cells (HGPS model)
SMNA7-expressing cells = test: Cell viability assay of SMNA7-expressing cells; assay type: cell-based; details: 50 μM baicalein
Source text: We investigate whether baicalein can act as a pharmacological chaperone to refold misfolded SMNA7 into a functional prion-like domain, as shown in FIG. 8 (FIG. 10a). […] PFN1 is a known SMN interactor in the cytosol. We further examined whether baicalein attenuated the degradation of the SMNA7 protein. […] We found baicalein increased the length of axons from NSC34 cells expressing SMNA7 by approximately 2-fold (FIG. 10g).

[5] = test system: p53 aggregates in 293T cells; test: p53 aggregates in 293T cells / p53 strains (immunofluorescence with p53 antibody); assay type: cell-based; details: 293T cells
Method: as §1
We observed a striking degree of heterogeneity among p53 aggregates in the cytosol of 293T cells by immunofluorescence with a p53 antibody, including long fibers (5-10 μm), short fibers (1.6-3.2 μm) and punctate aggregates (0.5-1 μm in diameter) (FIG. 16a, arrows). The length of the p53 fibers and p53 aggregates were analyzed (FIG. 16b). […] To determine whether these heterogeneous p53 amyloid patterns are inherited or are random conversions, we subcultured and isolated single colonies from heterogeneous pools of cells. […] We obtained four phenotypes shown in FIG. 16a, including long and short fibers, puncta, and diffuse nuclear staining, and these phenotypes were stably propagated (FIG. 16e). We termed these p53 phenotypes of the isolated strains as follows: p53 [L] (Long fibers), p53 [S] (Short fibers), p53 [P] (Puncta) and p53-NVA (No Visible Aggregates).
Additionally, we treated 293T cells with an Aβ amyloid disassembling agent, baicalein, following immunofluorescence staining with anti-p53 antibodies.

T1 sequence (Q13148 whole entry): as above

## O=c1cc(-c2ccccc2)oc2cc(O)c(O)c(O)c12 [baicalein]
[1]; 3 μM TDP-43 with 3 μM baicalein, RT, agitation, 30-90 min, fibers without compound 3 to 10 μm
  length of baicalein-inducing TDP-43 polymers: 0.15-0.9 μm
[1]; equimolar baicalein, time-dependent
  remodeling of TDP-43 fibers, oligomers or natively unfolded monomers: efficiently remodeled into ordered TDP-43 polymers
[2]
  TDP-43-IIPLD aggregates, statistical analysis of dose dependence: dosage-dependent reduction of TDP-43-IIPLD aggregates
[2]; 50 μM
  assembly of TDP-43-IIPLD proteinaceous nucleating particles: inhibited the assembly of TDP-43-IIPLD proteinaceous nucleating particles
TDP-43 polymers; 293T cells, 0, 25 or 50 μM baicalein
  TDP-43 polymers in nuclear fraction: compensatory increase in the nuclear fraction
TDP-43 polymers; baicalein-treated VCP/p97 R155H cells
  TDP-43 polymers: increased TDP-43 polymers
[3]
  nuclear localization of TDP-43: significantly induced the retention of nuclear TDP-43
[4]
  nuclear shape defects: corrected nuclear shape defects in HGPS
SMNA7-expressing cells
  increase of viability of SMNA7 cells: approximately 2 fold
[5]; 25 μM baicalein
  p53 misfolded aggregates: reduced p53 misfolded aggregates
[5]; baicalein
  spontaneous aggregation of p53: suppressed the spontaneous aggregation of p53

— patent publication US20210121438A1, “METHODS FOR TREATING OR PREVENTING CONFORMATION DISEASES AND METHODS FOR DRUG SCREENING” (GARAGE BRAIN SCIENCE CO., LTD, priority 2018, published 2021)
